Series [1] relates to RAW 264.7 macrophage cells. Nature of the series: Wound healing assay (macrophage migration). Format: cell-based, murine. The settings on record: LA1 15 μM, M18/2 20 μg/mL, 48 hours.
Description: Murine RAW 264.7 macrophage cells were grown in DMEM 10% FBS medium in T75 flasks to 70% confluence. The cells were detached by trypsin treatment for 10 minutes at 37° C. and evenly reseeded in 24 well plates and allowed to attain >70% confluency. A scratch was introduced horizontally across the well using 200 µL tip applying even force throughout the etching and holding the tip at approximately an 80 degree angle. The wells were subsequently washed and fresh medium containing various treatment groups was introduced. The wound was imaged using 10× objective. The cells were allowed to grow for 48 hours and the wound was reimaged at the same field after 48 hours. The average extent of wound closure was evaluated by measuring the width of the wound. The area healed was analyzed using ImageJ software and is expressed as percentage healing after 48 hours.
For FIG. 4B, RAW 264.7 cells were plated in 24-well tissue culture plates (2×10^6 cells/well) and allowed to adhere in complete media for 12 hours. […] Images of the cells in culture were obtained immediately prior to (0 hours) and after the completion of the experiment (48 hours) using an inverted phase contrast microscope attached to a video camera.
Representative data shown here are from a triplicate well experiment from one of at least two to three independent experiments. **p<0.001, ***p<0.0001.
The subject of series [2] is MyD88. Nature of the series: MyD88 levels in THP-1 cells. Format: cell-based, human. The text has this:
TLR4-mediated signaling requires participation of the adaptor protein MyD88 (43) and MyD88−/− mice are protected from kidney damage following IRI. TLR4 activation leads to the binding and stabilization of adaptor protein MyD88, which recruits downstream kinases to initiate Nf-kB-mediated pro-inflammatory signaling. Subsequently, TLR4 signaling induces a negative feedback loop by endogenous activation of CD11b/CD18, which activates Syk to phosphorylate MyD88, tagging it for ubiquitin-mediated destruction. […] A pilot experiment was carried out to validate this hypothesis by determining the levels of MyD88 in human monocytic THP-1 cells.

The subject of series [3] is Diabetic nephropathy. Nature of the series: Diabetic nephropathy model (BTBR ob/ob mouse). Format: in vivo. On the procedure: The efficacy of LA1 was tested in an experimental model of Diabetic nephropathy (DN), where inflammation plays a major role. It was surmised that reducing leukocyte activation, recruitment and influx can be a beneficial strategy for developing therapeutics against DN.

Series [4] is described as follows: LA1 concentration in mouse blood after PO and IP dosing (LC-MS). Format: in vivo. The following applies: 10 mg/kg, mice.
For series [5], the system named is neutrophil chemotaxis. The settings on record: previously shown [55]; cited from earlier work.
The target in series [6] is T1, CD11b/CD18 (Homo sapiens, UniProt P11215). Nature of the series: Flow chamber assay (adhesion under wall shear stress). Format: cell-based. Also noted: expressed in transfected cells; host or cells: 293T cells, transient transfection. The settings on record: 25 μM LA1, unlike Mn2+. The protocol:
The flow chamber assay was performed as described in literature (Chen, J. F., Salas, A. & Springer, T. A. Bistable regulation of integrin adhesiveness by a bipolar metal ion cluster. Nat. Struct. Biol. 10, 995-1001 (2003)). A polystyrene Petri dish was coated with a 5 mm diameter, 20 μL spot of 20 μg/mL purified h-ICAM-1/Fc (R&D) or 20 μg/mL Fibrinogen in coating buffer (PBS, 10 mM NaHCO3, pH 9.0) for 1 hour at 37° C., followed by 2% BSA in coating buffer for 1 hour at 37° C. to block nonspecific binding sites. Transient transfected 293T cells were washed twice with wash buffer (20 mM Hepes, 150 mM NaCl, pH 7.4, 5 mM EDTA/0.5% BSA), subsequently once with HBS containing 1 mM Ca^2+ and 1 mM Mg^2+ (HBS^++), and finally resuspended at the concentration of 5×10^6/mL in HBS^++ ([…], 0.5% BSA) and kept on ice. Cells were incubated in 2% DMSO with or without 25 μM LA1 at 37° C. for 30 minutes. And subsequently infused in the flow chamber using a Harvard apparatus programmable syringe pump. Cells were allowed to settle down for 5 minutes, and accumulate for 30 seconds at 0.3 dyn/cm^2 and 10 seconds at 0.4 dyn/cm^2. […] The number of cells remaining abound at the end of each 10-sec interval were determined. Rolling velocity at each shear stress was calculated from the average distance traveled by rolling cells in 3 seconds. […]

Series [7] has as its target T1, CD11b/CD18. Nature of the series: Flow cytometry with conformation reporter mAbs KIM127 and 24 on K562 WT cells. Format: cell-based. Also noted: K562 cells stably transfected with plasmid encoding wild-type integrin CD11b/CD18; expressed in transfected cells. The settings on record: LA1 15 uM, Mn2+ 1 mM; vs basal. On the procedure:
Flow cytometric analyses of K562 WT cells were performed according to published protocols. Briefly, cells were suspended in the assay buffer (Tris-buffered saline (TBS) containing 1 mM of ions Ca2+ and/or Mg2+ and 0.1% BSA). Cells ([…]) were incubated with primary mAb (1:100 dilution of IB4 ascites or the isotype controls, 1:50 […] and 24 and the relevant isotype controls, where incubations were performed at 37 °C) for 30 minutes. Subsequently, the cells were washed three times with the assay buffer and incubated with goat anti-mouse-APC (1 µg/ml, Invitrogen) for 20 minutes at 4° C. Cells were washed twice with the assay buffer and analyzed using FACSCaliber flow cytometer (BD Biosciences, CA), counting at least 10,000 events. Data was analyzed using the CellQuest software (BD Biosciences). Data shown is from one of at least three independent experiments.
Ligand binding induces extension of the integrin heterodimer and large, global conformational changes leading to outside-in signaling. Binding of activating antibodies also induces global conformational changes in the integrin heterodimer and such large conformational changes mimic those induced upon ligand binding. […] Thus, mAb KIM127 is often used as a reporter for the extended conformation of P2 integrins. […]
On the technique in general: In flow cytometry, cells or beads pass a laser one at a time.

Setting [8] is: daily administration, fully diabetic animals.

On to `O=C(O)c1ccc(-c2ccc(/C=C3\SC(=S)N(Cc4ccccc4)C3=O)o2)cc1` [LA1], for which the “migration of LPS- or PMA-stimulated macrophages” value in series [1] is “significantly, and to a similar extent, reduced the migration”. For the same compound, the “migration of macrophages into the wound area, agonist alone” value in series [1] (vs DMSO) was “no significant increase in the migration of macrophages”. In series [2] (LA1 alone, absence of LPS), the “time to complete degradation of MyD88” value is “less than 2 hours”. Besides, the MyD88 degradation entry in series [2] (co-treatment with LPS, THP-1 cells) is given as “much faster degradation of MyD88”. In series [3] (BTBR ob/ob mouse model), the “glomerular damage and glomerular mesangial sclerosis” value was “reduced glomerular damage and glomerular mesangial sclerosis”. Moreover, in series [3] (setting [8]), the kidney function entry is reported as “preserved kidney function” and the “number of infiltrating leukocytes in the kidney” value is given as “significantly reduced the number of infiltrating leukocytes”. Also, in series [4], the bioavailability entry was “bioavailable”, the “concentration of LA1 in plasma” value is “high concentrations”, the levels in blood entry is listed as “micromolar levels” and the mean residence time entry is “at least a few hours”. Further, the neutrophil chemotaxis result in series [5] is “impairs neutrophil chemotaxis”. Besides, the “adhesive behavior of CD11b/CD18 transfectants under wall shear stress (conformation induced)” value in series [6] is “induces priming of CD11b/CD18 and converts it into intermediate conformation”. Also, in series [7], the “binding of conformation reporter KIM127” value was “very small increase” and the “binding of conformation reporter mAb 24” value was “small increase”.
